Literature values, collected in patent US20040259850A1, “Method for treating or preventing symptoms of hormonal variation including hot flashes” (priority 2001, published 2004).

How the values were obtained:
hot flashes in patients = details: cited from earlier work; for amelioration of hot flashes, general statement: comparison of clonidine with estrogen
[1] = as stated in the background; cited from earlier work

Compound | side effects [1] | amelioration of hot flashes, general statement (hot flashes in patients) | further results
CC(=O)O[C@]1(C(C)=O)CC[C@H]2[C@@H]3C=C(C)C4=CC(=O)CC[C@]4(C)[C@H]3CC[C@@]21C [megestrol acetate] | chronic adrenal insufficiency can be a side effect |  | effect on frequency of hot flashes (hot flashes in patients; low dose oral, men and women, short term study (Loprinzi et al. 1994)): reduce the frequency of hot flashes
CN1CCN2c3ncccc3Cc3ccccc3C2C1 (centres unmarked) [Mirtazapine] |  |  | effect on hot flushes and perspiration bouts (hot flashes in patients; four case reports (Waldinger et al. 2000)): appears to have an ameliorating effect
Clc1cccc(Cl)c1N=C1NCCN1 [clonidine] |  | only mildly ameliorates hot flashes | effect on frequency and severity of hot flashes (hot flashes in patients; transdermal, tamoxifen-treated women (Goldberg et al. 1994)): only a moderate effect
estrogen |  | can virtually eliminate them | 
COc1ccc(C(CN(C)C)C2(O)CCCCC2)cc1 (centres unmarked) [venlafaxine] | mouth dryness, decreased appetite, nausea and constipation |  | effect on hot flashes (hot flashes in patients; early studies, survivors of breast cancer (Loprinzi et al. 2000)): effective non-hormonal method to diminish hot flashes
